{"source": "patent US20210360917A1", "about": "“CUTICLE SUPPLEMENT FOR PLANT PRODUCTION” (OREGON STATE UNIVERSITY, priority 2018, published 2021)", "origin": "cited, not measured here", "system": "spotted wing Drosophila", "details": "chemical alternative, source not given"}
{"smiles": "CCOC(=O)CC(SP(=S)(OC)OC)C(=O)OCC", "note": "(stereo not shown) [malathion]", "values": [{"measurement": "reduction of egg laying", "result": "about 50%"}]}
